According to ChEMBL document CHEMBL1201862, “PubChem BioAssay data set” (2004):
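Following 48 hours of exposure in 96-well plates, responses at five concentrations were used to interpolate endpoints linearly. GI50: concentration for 50% inhibition of growth.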 Active and inactive are the calls of the source. Rule as the data show it: active = GI50 up to about 1.1 µM and inactive = higher.

What was measured:
Experiment in all cases: growth of human tumour cells (NCI), 48 h
NCI-H23 = test system: NCI-H23
SNB-19 = test system: SNB-19
SF-268 = test system: SF-268
HOP-62 = test system: HOP-62
SF-295 = test system: SF-295
SK-MEL-28 = test system: SK-MEL-28
SNB-75 = test system: SNB-75
HT-29 = test system: HT-29
NCI-H522 = test system: NCI-H522
MOLT-4 = test system: MOLT-4
EKVX = test system: EKVX
UACC-257 = test system: UACC-257
LOX IMVI = test system: LOX IMVI
SK-MEL-2 = test system: SK-MEL-2
UO-31 = test system: UO-31
OVCAR-5 = test system: OVCAR-5
HL-60 = test system: HL-60

| Compound | GI50 (NCI-H23) | GI50 (SNB-19) | GI50 (SF-268) | GI50 (HOP-62) | GI50 (SF-295) | GI50 (SK-MEL-28) | GI50 (SNB-75) | GI50 (HT-29) | GI50 (NCI-H522) | GI50 (MOLT-4) | GI50 (EKVX) | GI50 (UACC-257) | GI50 (LOX IMVI) | GI50 (SK-MEL-2) | GI50 (UO-31) | GI50 (OVCAR-5) | GI50 (HL-60) |
| --- | --- | --- | --- | --- | --- | --- | --- | --- | --- | --- | --- | --- | --- | --- | --- | --- | --- |
| Cc1cc2c(c(C(=O)O)c1C)-c1cccc(F)c1C2=O | > 100 µM (inactive) | 67.8 µM (inactive) | > 100 µM (inactive) | > 100 µM (inactive) | > 100 µM (inactive) | > 100 µM (inactive) | > 100 µM (inactive) | > 100 µM (inactive) | > 100 µM (inactive) | > 100 µM (inactive) | > 100 µM (inactive) | > 100 µM (inactive) | > 100 µM (inactive) | > 100 µM (inactive) | 27 µM (inactive) | > 100 µM (inactive) |  |
| Cc1ccccc1-n1c(=O)sc2c(=O)n(-c3ccccc3)c(=S)[nH]c21 | > 100 µM (inactive) | > 100 µM (inactive) | > 100 µM (inactive) | > 100 µM (inactive) | > 100 µM (inactive) | > 100 µM (inactive) | > 100 µM (inactive) | > 100 µM (inactive) | 42.6 µM (inactive) | > 100 µM (inactive) | > 100 µM (inactive) | > 100 µM (inactive) |  | > 100 µM (inactive) | > 100 µM (inactive) | 95.5 µM (inactive) | > 100 µM (inactive) |
| c1ccc(NCn2cnc3ccccc32)cc1 | > 100 µM (inactive) | > 100 µM (inactive) | 74.8 µM (inactive) |  | > 100 µM (inactive) | > 100 µM (inactive) | 56.9 µM (inactive) | 36.3 µM (inactive) | > 100 µM (inactive) | > 100 µM (inactive) | > 100 µM (inactive) | > 100 µM (inactive) | 8.18 µM (inactive) | > 100 µM (inactive) | > 100 µM (inactive) | > 100 µM (inactive) |  |
| CC(=O)NS(=O)(=O)c1ccc(NC(=O)COC(=O)c2cccc3c(=O)c4ccccc4[nH]c23)cc1 | > 100 µM (inactive) | > 100 µM (inactive) |  | > 100 µM (inactive) | > 100 µM (inactive) | > 100 µM (inactive) | > 100 µM (inactive) | > 100 µM (inactive) | > 100 µM (inactive) | > 100 µM (inactive) | > 100 µM (inactive) | > 100 µM (inactive) | > 100 µM (inactive) | > 100 µM (inactive) | > 100 µM (inactive) |  | > 100 µM (inactive) |
| COc1cc(/C=C2\[C@H]3c4c(c(OC)c(C)c(OC)c4OC)C[C@@H](C(=O)N2Cc2ccccc2)N3C(=O)OC(C)C)c(OC)c(C)c1OC | 78 µM (inactive) |  | > 100 µM (inactive) | > 100 µM (inactive) | > 100 µM (inactive) | > 100 µM (inactive) | > 100 µM (inactive) | 53.2 µM (inactive) | 27.5 µM (inactive) | 42.9 µM (inactive) | 52.5 µM (inactive) | 34 µM (inactive) | > 100 µM (inactive) | > 100 µM (inactive) | 66.7 µM (inactive) | > 100 µM (inactive) | 19.8 µM (inactive) |
| CCOC(=O)C(=Cc1cc(OC)ccc1OC)C(=O)OCC | 3.03 µM (inactive) | 11.9 µM (inactive) | 5.36 µM (inactive) | 10.4 µM (inactive) | 12.4 µM (inactive) | 4.71 µM (inactive) | 1.67 µM (inactive) | 3.85 µM (inactive) | 3.66 µM (inactive) | 5.89 µM (inactive) | 10.6 µM (inactive) |  | 3.83 µM (inactive) | 4.75 µM (inactive) |  | 6.27 µM (inactive) | 1.96 µM (inactive) |
| COC(=O)C1=C(C(=O)OC)C23C=CC=CC24C(C(=O)OC)=C(C(=O)OC)C4C1C3 (centres undefined) | > 100 µM (inactive) | > 100 µM (inactive) | > 100 µM (inactive) | > 100 µM (inactive) | > 100 µM (inactive) | > 100 µM (inactive) | 0.743 µM (active) | > 100 µM (inactive) | 32.7 µM (inactive) | > 100 µM (inactive) | > 100 µM (inactive) | 50.2 µM (inactive) |  | > 100 µM (inactive) | > 100 µM (inactive) | > 100 µM (inactive) | 41.7 µM (inactive) |
| COc1cc(/C=N/N=C(\N)NO)cc(Cl)c1O | 36.9 µM (inactive) | > 100 µM (inactive) | 46.7 µM (inactive) | 35.7 µM (inactive) | 58.7 µM (inactive) | 20.7 µM (inactive) |  | > 100 µM (inactive) | > 100 µM (inactive) | 50.2 µM (inactive) | 30.9 µM (inactive) | 73.8 µM (inactive) | 31 µM (inactive) | 81.1 µM (inactive) | 23.9 µM (inactive) | 35.3 µM (inactive) |  |
| C=C1CC(CC)(CCN2C(=O)c3ccccc3C2=O)OC1=O (centres undefined) | 14.1 µM (inactive) | > 10 µM (inactive) | 1.08 µM (active) | 35.9 µM (inactive) | 29.2 µM (inactive) |  | 43.8 µM (inactive) | 14.1 µM (inactive) | 3.48 µM (inactive) | 21.9 µM (inactive) | 17 µM (inactive) | 13.8 µM (inactive) | 14.2 µM (inactive) | 12.9 µM (inactive) | 19.7 µM (inactive) |  | 9.2 µM (inactive) |
